The numbers were not newly measured in patent US8877698B2, “Method and composition for disinfecting hard surfaces” (priority 2001, dated 2014), which cites them from elsewhere.

For the series, the system named is Mycobacterium tuberculosis var. bovis and poliovirus.

With `CCO` [ethanol], the “concentrations needed to kill resistant organisms” value is recorded as 70-90%.
